Assay results as given in ChEMBL document CHEMBL1153709, “NSAID-derived gamma-secretase modulators. Part III: Membrane anchoring” (Bioorg Med Chem Lett, 2009).
pEC50, pIC50: −log10 of the molar value.

What was measured:
Type in all cases: cell-based
Gamma-secretase [1] = assay: Modulation of gamma-secretase in human H4 cells assessed as inhibition of in amyloid beta42 production by LPECL assay
Gamma-secretase [2] = assay: Modulation of gamma-secretase in human H4 cells assessed as inhibition of in amyloid beta40 production by LPECL assay
Gamma-secretase [3] = assay: Modulation of gamma-secretase in human H4 cells assessed as increase in amyloid beta38 production by LPECL assay
H4 = assay: Cytotoxicity against human H4 cells by MTS assay
[4] = molecular target: Gamma-secretase (Homo sapiens) (UniProt Q96BI3+Q9NZ42+Q8WW43+P49768+Q92542+P49810); assay: Modulation of gamma-secretase in human H4 cells assessed as reduction of in amyloid beta42 production at 40 uM by LPECL assay; set-up: scale not given: the % may be the effect or the level left

`CCCCCCCC/C=C/CCCCCCCC(=O)n1c2ccccc2c2ccc(OCC(=O)O)cc21` gave a pIC50 (Gamma-secretase [1]) of 4.89, a pIC50 (Gamma-secretase [2]) of under 4.40 and a pEC50 (Gamma-secretase [3]) of 5.03.
Work on `CC(C)(Oc1ccc(/C(=N\OCCCCCCCCCO/N=C(/c2ccc(Cl)cc2)c2ccc(OC(C)(C)C(=O)O)cc2)c2ccc(Cl)cc2)cc1)C(=O)O` yielded an Activity (H4) of 80 µM, a pIC50 (Gamma-secretase [1]) of under 4.40 and a pIC50 (Gamma-secretase [2]) of under 4.40. It also gave a pEC50 (Gamma-secretase [3]) of under 4.40.
`CCCCCCCCCCO/N=C(/c1ccc(Cl)cc1)c1ccc(OC(C)(C)C(=O)O)cc1` was tested, and the pIC50 (Gamma-secretase [1]) was 4.44, the Activity [4] was 60% and the pIC50 (Gamma-secretase [2]) was under 4.10. It also gave a pEC50 (Gamma-secretase [3]) of under 4.10.
`CCCCCCCCO/N=C(/c1ccc(Cl)cc1)c1ccc(OC(C)(C)C(=O)O)cc1` showed an Activity (H4) of 80 µM, a pIC50 (Gamma-secretase [1]) of 4.44 and an Activity [4] of 60%. For the same molecule, the pIC50 (Gamma-secretase [2]) was 4.32 and the pEC50 (Gamma-secretase [3]) was 4.79.
`CN(C)c1ccc(/N=N/c2ccc(S(=O)(=O)n3c4ccccc4c4ccc(OCC(=O)O)cc43)cc2)cc1` was tested, and the pIC50 (Gamma-secretase [1]) was 5.05, the pIC50 (Gamma-secretase [2]) was under 4.10 and the pEC50 (Gamma-secretase [3]) was 5.12.
With `O=C(O)COc1ccc2c3ccccc3n(Cc3cccc(C4(C(F)(F)F)N=N4)c3)c2c1` the pIC50 (Gamma-secretase [1]) was under 4.10, the pIC50 (Gamma-secretase [2]) was under 4.10 and the pEC50 (Gamma-secretase [3]) was under 4.10.
Molecule `CC(C)(Oc1ccc(/C(=N\OCCCCCCCCCCO/N=C(/c2ccc(Cl)cc2)c2ccc(OC(C)(C)C(=O)O)cc2)c2ccc(Cl)cc2)cc1)C(=O)O` has an Activity (H4) of 80 µM, a pIC50 (Gamma-secretase [1]) of under 4.49 and a pIC50 (Gamma-secretase [2]) of under 4.40. The pEC50 (Gamma-secretase [3]) was under 4.40.
Work on `CCCCCCCCCO/N=C(/c1ccc(Cl)cc1)c1ccc(OC(C)(C)C(=O)O)cc1` yielded a pIC50 (Gamma-secretase [1]) of under 4.40, a pIC50 (Gamma-secretase [2]) of under 4.40 and a pEC50 (Gamma-secretase [3]) of under 4.40.
`CCCCCCCCCCCCCCCCCCn1c2ccccc2c2ccc(OCC(=O)O)cc21` showed a pIC50 (Gamma-secretase [1]) of 4.59, a pIC50 (Gamma-secretase [2]) of under 4.10 and a pEC50 (Gamma-secretase [3]) of 5.85.
For `CCCCCCCCCCCO/N=C(/c1ccc(Cl)cc1)c1ccc(OC(C)(C)C(=O)O)cc1`, the pIC50 (Gamma-secretase [1]) was under 4.40, the pIC50 (Gamma-secretase [2]) was under 4.40 and the pEC50 (Gamma-secretase [3]) was under 4.40.
`CC(C)(Oc1ccc(/C(=N\OCCCCCCCCO/N=C(/c2ccc(Cl)cc2)c2ccc(OC(C)(C)C(=O)O)cc2)c2ccc(Cl)cc2)cc1)C(=O)O` gave a pIC50 (Gamma-secretase [1]) of 4.63, a pIC50 (Gamma-secretase [2]) of 4.43 and a pEC50 (Gamma-secretase [3]) of 4.32.
`CCCCCCCCCCCCO/N=C(/c1ccc(Cl)cc1)c1ccc(OC(C)(C)C(=O)O)cc1` showed an Activity (H4) of 80 µM, a pIC50 (Gamma-secretase [1]) of under 4.40 and a pIC50 (Gamma-secretase [2]) of under 4.40. It also gave a pEC50 (Gamma-secretase [3]) of under 4.40.
Molecule `N#Cc1ccccc1-c1ccc(Cn2c3ccccc3c3ccc(OCC(=O)O)cc32)cc1` has a pIC50 (Gamma-secretase [1]) of under 4.10, a pIC50 (Gamma-secretase [2]) of under 4.10 and a pEC50 (Gamma-secretase [3]) of under 4.10.
`CCCCCCCC/C=C\CCCCCCCC(=O)n1c2ccccc2c2ccc(OCC(=O)O)cc21` was tested, and the pIC50 (Gamma-secretase [1]) was 4.88, the pIC50 (Gamma-secretase [2]) was under 4.40 and the pEC50 (Gamma-secretase [3]) was 5.04.
`CN(C)c1cccc2c(S(=O)(=O)n3c4ccccc4c4ccc(OCC(=O)O)cc43)cccc12` gave an Activity (H4) of 80 µM, a pIC50 (Gamma-secretase [1]) of under 4.40 and a pIC50 (Gamma-secretase [2]) of under 4.40. The pEC50 (Gamma-secretase [3]) was under 4.40.
Work on `CCCCCCCCCC(=O)n1c2ccccc2c2ccc(OCC(=O)O)cc21` yielded a pIC50 (Gamma-secretase [1]) of 4.65, a pIC50 (Gamma-secretase [2]) of under 4.40 and a pEC50 (Gamma-secretase [3]) of 4.90.
Molecule `CCCCCCCCCCCCCCCCO/N=C(/c1ccc(Cl)cc1)c1ccc(OC(C)(C)C(=O)O)cc1` has a pIC50 (Gamma-secretase [1]) of under 4.10, a pIC50 (Gamma-secretase [2]) of under 4.10 and a pEC50 (Gamma-secretase [3]) of under 4.10.
Molecule `CCCCCCCCCCCCCCO/N=C(/c1ccc(Cl)cc1)c1ccc(OC(C)(C)C(=O)O)cc1` has a pIC50 (Gamma-secretase [1]) of under 4.10, a pIC50 (Gamma-secretase [2]) of under 4.10 and a pEC50 (Gamma-secretase [3]) of under 4.10.
With `CC(C)(Oc1ccc(C(/N=N/c2ccc([N+](=O)[O-])cc2[N+](=O)[O-])c2ccc(Cl)cc2)cc1)C(=O)O` (stereo not given) the Activity (H4) was 80 µM, the pIC50 (Gamma-secretase [1]) was 4.77 and the pIC50 (Gamma-secretase [2]) was 4.43. For the same molecule, the pEC50 (Gamma-secretase [3]) was 4.32.
